# In patent publication US10597388B2, “Pyridazinone herbicides” (FMC CORPORATION, priority 2014, dated 2020):
# Key:
# Test in all cases: Test C greenhouse herbicide test, pre- and postemergence
# Assay type in all cases: in vivo
# [1] = test system: lambsquarters (Chenopodium album)
# Procedure, shortened: (§1)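 Greenhouse pots; pre-em on seeded loam:sand blend, post-em on 2–18 cm plants (1–4 leaf) in sphagnum peat/vermiculite medium. Formulation: non-phytotoxic solvent + surfactant. Read-out: visual % control (0–100) vs controls at 13–15 d.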
# [2] = test system: corn (Zea mays)
# Procedure, shortened: as §1
# [3] = test system: soybean (Glycine max)
# Procedure, shortened: as §1
# [4] = test system: velvetleaf (Abutilon theophrasti)
# Procedure, shortened: as §1
# [5] = test system: foxtail, giant (giant foxtail, Setaria faberii)
# Procedure, shortened: as §1
# [6] = test system: galium (catchweed bedstraw, Galium aparine)
# Procedure, shortened: as §1
# [7] = test system: ryegrass, Italian (Italian ryegrass, Lolium multiflorum)
# Procedure, shortened: as §1
# [8] = test system: blackgrass (Alopecurus myosuroides)
# Procedure, shortened: as §1
# [9] = test system: oilseed rape (Brassica napus)
# Procedure, shortened: as §1
# [10] = test system: morningglory (Ipomoea coccinea)
# Procedure, shortened: as §1
# [11] = test system: crabgrass, large (large crabgrass, Digitaria sanguinalis)
# Procedure, shortened: as §1
# [12] = test system: johnsongrass (Sorghum halepense)
# Procedure, shortened: as §1
# [13] = test system: wheat (winter wheat, Triticum aestivum)
# Procedure, shortened: as §1
# [14] = test system: pigweed (Amaranthus retroflexus)
# Procedure, shortened: as §1
# [15] = test system: nutsedge, yellow (yellow nutsedge, Cyperus esculentus)
# Procedure, shortened: as §1
# [16] = test system: waterhemp (common waterhemp, Amaranthus rudis)
# Procedure, shortened: as §1
# [17] = Postemergence, 31 g ai/ha, 0 to 100 scale (0 no effect, 100 complete control)
# [18] = Postemergence, 125 g ai/ha, scale 0 to 100, 0 is no effect, 100 is complete control
# [19] = Postemergence, 250 g ai/ha, scale 0 to 100, 0 no effect, 100 complete control, 13 to 15 d
# [20] = Preemergence, 31 g ai/ha, scale 0 to 100, 0 is no effect, 100 is complete control
# [21] = Preemergence, 62 g ai/ha, scale 0 to 100, 0 is no effect, 100 is complete control
# [22] = Preemergence, 125 g ai/ha, scale 0 to 100, 0 is no effect, 100 is complete control
# [23] = Preemergence, 250 g ai/ha, scale 0 to 100 (0 no effect, 100 complete control)
# [24] = postemergence, 62 g ai/ha, scale 0 to 100, 0 no effect, 100 complete control
compound,measurement,setting,value
CC(=O)Oc1c(C)nn(C)c(=O)c1-c1c(C)sc2ccc(C)cc12 [Compound 25],Lambsquarters plant response rating,[1]; [17],90
same,"Plant response rating, Lambsquarters",[1]; [18],98
same,"Plant response rating, Lambsquarters",[1]; [19],98
same,"Plant response rating, Lambsquarters",[1]; [20],80
same,"Plant response rating, Lambsquarters",[1]; [21],85
same,"Plant response rating, Lambsquarters",[1]; [22],85
same,Lambsquarters plant response rating,[1]; [23],95
same,Lambsquarters plant response rating,[1]; [24],95
same,Corn plant response rating,[2]; [17],5
same,"Plant response rating, Corn",[2]; [18],5
same,"Plant response rating, Corn",[2]; [19],10
same,"Plant response rating, Corn",[2]; [20],0
same,"Plant response rating, Corn",[2]; [21],0
same,"Plant response rating, Corn",[2]; [22],0
same,Corn plant response rating,[2]; [23],10
same,Corn plant response rating,[2]; [24],5
same,Soybean plant response rating,[3]; [17],0
same,"Plant response rating, Soybean",[3]; [18],10
same,"Plant response rating, Soybean",[3]; [19],10
same,"Plant response rating, Soybean",[3]; [21],0
same,"Plant response rating, Soybean",[3]; [22],0
same,Soybean plant response rating,[3]; [23],5
same,Soybean plant response rating,[3]; [24],0
same,Velvetleaf plant response rating,[4]; [17],70
same,"Plant response rating, Velvetleaf",[4]; [18],85
same,"Plant response rating, Velvetleaf",[4]; [19],98
same,"Plant response rating, Velvetleaf",[4]; [21],85
same,"Plant response rating, Velvetleaf",[4]; [22],90
same,Velvetleaf plant response rating,[4]; [23],98
same,Velvetleaf plant response rating,[4]; [24],80
same,"Foxtail, Giant plant response rating",[5]; [17],35
same,"Plant response rating, Foxtail, Giant",[5]; [18],70
same,"Plant response rating, Foxtail, Giant",[5]; [19],85
same,"Plant response rating, Foxtail, Giant",[5]; [20],75
same,"Plant response rating, Foxtail, Giant",[5]; [21],85
same,"Plant response rating, Foxtail, Giant",[5]; [22],90
same,"Foxtail, Giant plant response rating",[5]; [23],100
same,"Foxtail, Giant plant response rating",[5]; [24],35
same,Galium plant response rating,[6]; [17],90
same,"Plant response rating, Galium",[6]; [18],100
same,"Plant response rating, Galium",[6]; [19],95
same,"Plant response rating, Galium",[6]; [20],90
same,"Plant response rating, Galium",[6]; [21],95
same,"Plant response rating, Galium",[6]; [22],95
same,Galium plant response rating,[6]; [23],98
same,Galium plant response rating,[6]; [24],95
same,"Ryegrass, Italian plant response rating",[7]; [17],70
same,"Plant response rating, Ryegrass, Italian",[7]; [18],90
same,"Plant response rating, Ryegrass, Italian",[7]; [19],95
same,"Plant response rating, Ryegrass, Italian",[7]; [20],90
same,"Plant response rating, Ryegrass, Italian",[7]; [21],95
same,"Plant response rating, Ryegrass, Italian",[7]; [22],95
same,"Ryegrass, Italian plant response rating",[7]; [23],95
same,"Ryegrass, Italian plant response rating",[7]; [24],85
same,Blackgrass plant response rating,[8]; [17],30
same,"Plant response rating, Blackgrass",[8]; [18],60
same,"Plant response rating, Blackgrass",[8]; [19],80
same,"Plant response rating, Blackgrass",[8]; [20],85
same,"Plant response rating, Blackgrass",[8]; [21],85
same,"Plant response rating, Blackgrass",[8]; [22],90
same,Blackgrass plant response rating,[8]; [23],90
same,Blackgrass plant response rating,[8]; [24],55
same,Oilseed Rape plant response rating,[9]; [17],0
same,"Plant response rating, Oilseed Rape",[9]; [18],20
same,"Plant response rating, Oilseed Rape",[9]; [19],5
same,"Plant response rating, Oilseed Rape",[9]; [20],0
same,"Plant response rating, Oilseed Rape",[9]; [21],0
same,"Plant response rating, Oilseed Rape",[9]; [22],5
same,Oilseed Rape plant response rating,[9]; [23],35
same,Oilseed Rape plant response rating,[9]; [24],0
same,Morningglory plant response rating,[10]; [17],100
same,"Plant response rating, Morningglory",[10]; [18],100
same,"Plant response rating, Morningglory",[10]; [19],100
same,"Plant response rating, Morningglory",[10]; [20],85
same,"Plant response rating, Morningglory",[10]; [21],95
same,"Plant response rating, Morningglory",[10]; [22],95
same,Morningglory plant response rating,[10]; [23],100
same,Morningglory plant response rating,[10]; [24],100
same,"Crabgrass, Large plant response rating",[11]; [17],5
same,"Plant response rating, Crabgrass, Large",[11]; [18],20
same,"Plant response rating, Crabgrass, Large",[11]; [19],20
same,"Plant response rating, Crabgrass, Large",[11]; [20],70
same,"Plant response rating, Crabgrass, Large",[11]; [21],75
same,"Plant response rating, Crabgrass, Large",[11]; [22],95
same,"Crabgrass, Large plant response rating",[11]; [23],90
same,"Crabgrass, Large plant response rating",[11]; [24],15
same,Johnsongrass plant response rating,[12]; [17],0
same,"Plant response rating, Johnsongrass",[12]; [18],5
same,"Plant response rating, Johnsongrass",[12]; [19],10
same,"Plant response rating, Johnsongrass",[12]; [20],0
same,"Plant response rating, Johnsongrass",[12]; [21],0
same,"Plant response rating, Johnsongrass",[12]; [22],5
same,Johnsongrass plant response rating,[12]; [23],20
same,Johnsongrass plant response rating,[12]; [24],5
same,Wheat plant response rating,[13]; [17],0
same,"Plant response rating, Wheat",[13]; [18],0
same,"Plant response rating, Wheat",[13]; [19],5
same,"Plant response rating, Wheat",[13]; [21],0
same,"Plant response rating, Wheat",[13]; [22],0
same,Wheat plant response rating,[13]; [23],5
same,Wheat plant response rating,[13]; [24],0
same,Pigweed plant response rating,[14]; [17],90
same,"Plant response rating, Pigweed",[14]; [18],95
same,"Plant response rating, Pigweed",[14]; [19],98
same,"Plant response rating, Pigweed",[14]; [20],100
same,"Plant response rating, Pigweed",[14]; [21],100
same,"Plant response rating, Pigweed",[14]; [22],100
same,Pigweed plant response rating,[14]; [23],100
same,Pigweed plant response rating,[14]; [24],90
same,"Nutsedge, Yellow plant response rating",[15]; [17],65
same,"Plant response rating, Nutsedge, Yellow",[15]; [18],90
same,"Plant response rating, Nutsedge, Yellow",[15]; [19],90
same,"Plant response rating, Nutsedge, Yellow",[15]; [20],40
same,"Plant response rating, Nutsedge, Yellow",[15]; [21],30
same,"Plant response rating, Nutsedge, Yellow",[15]; [22],70
same,"Nutsedge, Yellow plant response rating",[15]; [23],80
same,"Nutsedge, Yellow plant response rating",[15]; [24],75
same,Waterhemp plant response rating,[16]; [17],75
same,"Plant response rating, Waterhemp",[16]; [18],95
same,"Plant response rating, Waterhemp",[16]; [19],98
same,"Plant response rating, Waterhemp",[16]; [21],100
same,"Plant response rating, Waterhemp",[16]; [22],100
same,Waterhemp plant response rating,[16]; [23],100
same,Waterhemp plant response rating,[16]; [24],95
